{"source": "patent US9834514B2", "about": "“Antibiotic sensitivity-restoring and photosensitive agents” (New Mexico Tech Research Foundation, priority 2015, dated 2017)", "key": {"A. baumannii": {"tested_on": "A. baumannii", "experiment": "Resensitization to antibiotics (log reduction, TABLE 29)", "assay_type": "cell-based", "conditions": "compound 5 μM; PME (0.2 μg/mL)"}, "[1]": {"tested_on": "Klebsiella pneumoniae (CRE, ATCC BAA-1705)", "experiment": "MIC against CRE", "assay_type": "cell-based", "conditions": "Klebsiella pneumoniae, ATCCBAA1705", "procedure": "TABLE 27 details the individual MIC values of compounds 1, 7, 8, 9, 10, 11, PMB, PME, and light against CRE.\nThe MICs of PME and compounds 8-11 were determined against Klebsiella pneumoniae (CRE, ATCC BAA-1705). […] After the incubation with PME, the compounds were added at a concentration of 20 μM, and the samples were further incubated. At specific time points, the samples were taken and diluted ten-fold in media. Ten microliters of each dilution was then drip-streaked onto an agar plate and incubated overnight at 37° C. Colony counts were then performed and the CFU/mL were calculated."}, "[2]": {"tested_on": "A. baumannii (ATCC 15151)", "experiment": "Time course of colony counts with compounds and PME or PMB", "assay_type": "cell-based", "conditions": "0.2 μg/mL of PME, compound 5 μM; FIGS. 50, 52", "procedure": "The MICs of PME and compounds 8-11 were determined against A. baumannii (ATCC 15151). […] After incubating the cells with PME, a compound (5 μM) was added, and the samples were further incubated at 37° C. At specific time points, samples were taken and diluted ten-fold in media. Ten microliters of each dilution was then drip-streaked onto an agar plate and incubated overnight at 37° C. Colony counts were then performed, and the CFU/mL were calculated."}, "VRE": {"tested_on": "VRE", "experiment": "MIC against VRE", "assay_type": "cell-based, Enterococcus faecalis", "conditions": "Enterococcus, TABLE 23, read-out: VRE MIC", "procedure": "In a 12×75 mm borosilicate glass culture tube, 1 mL of cell suspension was added. Then, compound 7 was added to the cells, and the samples were mixed using a vortex mixer. […] The samples were incubated overnight at 37° C. on a rotary shaking incubator at 100 rpm."}, "WI38 cells": {"tested_on": "WI38 cells", "experiment": "Toxicity (IC50) on WI38 cells", "assay_type": "cell-based", "conditions": "Homo sapiens, WI-38; normal lung fibroblast WI38 cells", "procedure": "(§1) The toxicities of the compounds of the invention were determined for human cancerous cervical epithelium HeLa and normal lung fibroblast WI38 cells. The toxicities of EPIs INF-55 and INF-55Cl were quantified as controls. […] TABLE 2 compares the toxicity of compounds 7-11 on HeLa cells and normal WI38 cells."}, "[3]": {"tested_on": "Klebsiella pneumoniae (CRE, ATCC BAA-1705)", "experiment": "Cell killing of CRE with compounds in presence or absence of PMB (CFU/mL)", "assay_type": "cell-based", "procedure": "Klebsiella pneumoniae (CRE, ATCC BAA-1705) was grown in TSB overnight at 37° C. and diluted to about 5×10^5 CFU/mL using a McFarland Latex Turbidity standard (0.5). One mL of the cell suspension was transferred to a glass culture test tube. PMB was added to the cell suspension resulting in a final concentration of 200 μg/mL of PMB. The cell suspension was incubated at 37° C. on a rotary shaking incubator at 150 rpm for 4 hours. Compounds 1, 7, 8, 9, 10, and 11 were added to the cell suspension, resulting in a concentration of 20 μM for each of the compounds. The cell suspensions containing the compounds were incubated at 37° C. on a rotary shaking incubator at 150 rpm for 4 hours. Each sample was diluted tenfold to a 10^−5 dilution. Ten 10 microliters of each dilution from each sample was dripped onto a TSA plate and allowed to streak down the plate. The agar plates were incubated at 37° C. for 18-24 hours. Colony counts were performed and CFU/mL values were calculated.\nThe MICs of PMB and compounds 7-11 were determined against Klebsiella pneumoniae (CRE, ATCC BAA-1705). […] After the incubation with PMB, each of the compounds was added at a concentration of 20 μM, and the samples were incubated for an additional 18 hours. A sample was taken and diluted ten-fold in media. Ten microliters of each dilution was then drip-streaked onto an agar plate and incubated overnight at 37° C. Colony counts were then performed and the concentrations of cells (CFU/mL) were calculated."}, "MRSA": {"tested_on": "MRSA", "experiment": "Resensitization to antibiotics (log reduction, TABLE 29)", "assay_type": "cell-based, S. aureus", "conditions": "compound 0.5 μM"}, "HeLa cells": {"tested_on": "HeLa cells", "experiment": "Toxicity (IC50) on HeLa cells", "assay_type": "cell-based, human", "conditions": "Homo sapiens; cancerous cervical epithelium HeLa cells", "procedure": "as §1"}, "S. aureus (ATCC 29213)": {"tested_on": "S. aureus (ATCC 29213)", "experiment": "MIC against drug sensitive S. aureus", "assay_type": "cell-based", "conditions": "Staphylococcus aureus, ATCC29213; ATCC 29213; read-out: S. aureus MIC"}, "P. aeruginosa": {"tested_on": "P. aeruginosa", "experiment": "MIC against P. aeruginosa", "assay_type": "cell-based", "conditions": "Pseudomonas aeruginosa, read-out: MIC", "text": "Only compound 1 was able to decrease the CFU/mL when used in conjunction with white light to treat P. aeruginosa."}, "MRSA (ATCC BAA-44)": {"tested_on": "MRSA (ATCC BAA-44)", "experiment": "Synergy with oxacillin and norfloxacin and other antibiotics (colony counts)", "assay_type": "cell-based, S. aureus", "procedure": "The synergy of compounds 1 and 7-11 with oxacillin and norfloxacin was tested against MRSA (ATCC BAA-44). An overnight culture of MRSA was first diluted to about 5×10^5 CFU/mL in TSB. Then, 1 mL of the diluted broth suspension was added to a borosilicate glass culture tube. An appropriate volume of a compound or an antibiotic drug stock was added to the broth suspension and mixed using a vortex mixer. Then an appropriate volume of an antibiotic was added to test synergy with compounds 7-11. The samples were subsequently mixed using a vortex mixer, and the samples were incubated for 18 hours at 37° C. on a rotary shaking incubator. After 18 hours, the test cultures were diluted ten-fold, 10 μL of each dilution was drip-streaked onto a TSA plate, and the samples were incubated for 18 hours at 37° C. Colony counts were then performed and the CFU/mL values were calculated.\nTABLE 21 details the MIC values identified in the MRSA assay of compounds 1, 7, 8, 9, 10, 11, various antibiotics, and light."}, "CRE": {"tested_on": "CRE", "experiment": "Resensitization to antibiotics (log reduction, TABLE 29)", "assay_type": "cell-based", "conditions": "compound 20 μM; PME (0.2 μg/mL)", "procedure": "In a 96-well microtiter plate, two-fold dilutions were made of each drug (starting with 100 μM) in 100 μL of a cell suspension in TSB. The resulting samples were incubated overnight at 37° C. on a rotary shaking incubator at 100 rpm. The samples were then visually inspected for turbidity. A 20% well volume of MTT reagent (5 mg/mL) was subsequently added, and the samples were incubated for about 20 minutes."}, "[4]": {"conditions": "(⅛) MIC compound + (1/7) MIC Norfloxacin"}, "[5]": {"conditions": "(⅛) MIC compound + (¼) MIC Oxacillin"}, "[6]": {"conditions": "compared to compound alone, FIGS. 34, 39, 41"}, "[7]": {"conditions": "increase in ability to kill MRSA versus drug or compound alone"}}, "data": [{"molecule": "Clc1ccc(Oc2c(-c3ccc(Cl)cc3)[nH]c3ccc(Cl)cc23)cc1", "note": "[Compound 11]", "values": [{"measurement": "Log Reduction", "setting": "A. baumannii", "value": 8}, {"measurement": "MIC", "setting": "[1]", "value": "> 100", "unit": "µM"}, {"measurement": "A. baumannii colony populations on treatment with compound and PME", "setting": "[2]", "value": "reduced to sterility"}, {"measurement": "MIC", "setting": "VRE", "value": 20, "unit": "µM"}, {"measurement": "IC50", "setting": "WI38 cells", "value": 9.62, "unit": "µM"}, {"measurement": "PMB + Comp", "setting": "[3]; PMB @ 0.2 μg/mL + Comp @ 20 µM", "value": "None Detected"}, {"measurement": "Comp @ 20 µM", "setting": "[3]; compound alone", "value": "7.8 × 10^8 CFU/mL"}, {"measurement": "Log Reduction", "setting": "MRSA; Norfloxacin (20 μg/mL)", "value": 8}, {"measurement": "Log Reduction", "setting": "MRSA; Oxacillin (100 μg/mL)", "value": 5}, {"measurement": "IC50", "setting": "HeLa cells", "value": 25.9, "unit": "µM"}, {"measurement": "MIC", "setting": "S. aureus (ATCC 29213)", "value": "32 to 64", "unit": "µM"}, {"measurement": "MIC", "setting": "P. aeruginosa", "value": "> 100", "unit": "µM"}, {"measurement": "% Kill", "setting": "MRSA (ATCC BAA-44); [4]", "value": 99.99, "unit": "%"}, {"measurement": "Surviving MRSA", "setting": "MRSA (ATCC BAA-44); [4]", "value": "1.00 × 10^−5"}, {"measurement": "% Kill", "setting": "MRSA (ATCC BAA-44); [5]", "value": 99.99, "unit": "%"}, {"measurement": "Surviving MRSA", "setting": "MRSA (ATCC BAA-44); [5]", "value": "1.00 × 10^−5"}, {"measurement": "Synergy with Norfloxacin", "setting": "MRSA (ATCC BAA-44); TABLE 6", "value": "8-log reduction"}, {"measurement": "Synergy with Oxacillin", "setting": "MRSA (ATCC BAA-44); TABLE 6", "value": "5-log reduction"}, {"measurement": "log reduction in the number of surviving cells (CFU/mL), co-treatment with norfloxacin", "setting": "MRSA (ATCC BAA-44); [6]", "value": "~8", "unit": "log"}, {"measurement": "log reduction in the number of surviving cells (CFU/mL), co-treatment with oxacillin", "setting": "MRSA (ATCC BAA-44); [6]", "value": "~5", "unit": "log"}, {"measurement": "killing of MRSA in conjunction with oxacillin", "setting": "MRSA (ATCC BAA-44); compound 11 at 1 μM, FIG. 40", "value": "more effective at killing MRSA when used in conjunction with oxacillin"}, {"measurement": "Orders of Magnitude with Norfloxacin", "setting": "MRSA (ATCC BAA-44); [7]", "value": 5}, {"measurement": "Orders of Magnitude with Oxacillin", "setting": "MRSA (ATCC BAA-44); [7]", "value": 5}, {"measurement": "Log Reduction", "setting": "CRE", "value": 6}]}]}
